Source: patent US20240139213A1 (priority 2017, published 2024)

Tested on: Subjects with a variety of atopic conditions
Type: in vivo, human
Parameters: key: a score of 1 was given if symptoms worsened; a score of 2 was given if there was no change in symptoms; a score of 3 was given if there was some improvement in symptoms; a score of 4 was given if there were marked improvement in symptoms
Conditions: Subject D; eosinophilic esophagitis and GERD; Vitamin D3 4000 IU for 9 months without a probiotic compound

SMILES: C=C1CC[C@H](O)C/C1=C/C=C1\CCC[C@]2(C)[C@@H]([C@H](C)CCCC(C)C)CC[C@@H]12 [Vitamin D3]
- score on 4 point scale: 2
